Results published in patent US20230241088A1, “COMPOSITION FOR PREVENTING OR TREATING LUNG CANCER COMPRISING ORTHO-TOPOLIN RIBOSIDE AS ACTIVE INGREDIENT” (CHUNG-ANG UNIVERSITY INDUSTRY-ACADEMY COOPERATION FOUNDATION, priority 2022, published 2023).

Key:
Type in all cases: cell-based, Human
[1] = tested on: A549; test: MTT cell viability assay, A549; settings: 48 hours
Method: (§1) Human NSCLC cell lines A549, H1437, H2087, H522, and HCC827 were obtained from the Korean Cell Line Bank (KCLB, Seoul, Korea). These cells were cultured in RPMI-1640 medium (Gibco, N.Y., USA) supplemented with 10% FBS (Gibco) and 1% penicillin-streptomycin (HyClone Laboratories, Logan, Utah, USA). All cell lines were cultured under standard conditions (5% CO2, humid environment, 37° C.). A549 cells were seeded at a density of 1×10^4 cells/well and H1437, H2087, H522, HCC827, and MRCS cells at a density of 2×10^4 cells/well in 96-well plates and were cultured until cells reach approximately 70-80% confluency. The NSCLC cells were treated with plant hormones for 48 hours. Stock solution of each plant hormone was diluted with culture medium, wherein concentrations of DMSO, water, methanol, and ethanol in the culture medium were below 1% (v/v). The half-maximal inhibitory concentration (IC50) was calculated using CompuSyn software (ComboSyn Inc., Paramus, N.J., USA).
(§2) The inhibitory effect of plant hormones and their derivatives was investigated on 5 NSCLC cell lines (A549, H1437, H2087, H522, and HCC827). The NSCLC cells were treated with ABA, Cor, ethephon, GR-24, IAA, KR, MJ, N6b, N6i, oTR, and SS-HCS at concentrations of 0.1, 0.5, 1, 5, 10, 50, and 100 μM. Cell viability and IC50 values for 48 hours were investigated by performing the MTT assay.

[2] = tested on: NSCLC cells; test: MTT cell viability assay, NSCLC cells overall
Method: as §1, §2

[3] = tested on: A549 cells; test: Glycolytic function analysis (Seahorse XFe24, glycoPER); settings: oTR 5, 10, and 50 μM, 48 hours, FIG. 5A
Method: (§3) Mitochondrial and glycolytic functions were assessed using Seahorse XFe24 analyzer (Agilent Technologies, Lexington, Mass., USA). A549 cells were seeded in a cell culture plate at a density of 1.5×10^4 cells/well. Cells were treated with oTR (5, 10, and 50 μM) for 48 hours after achieving approximately 70-80% confluency. The glycolytic and mitochondrial functions were determined by measuring the proton efflux rate (PER) and oxygen consumption rate (OCR), respectively. Glycolytic PER (glycoPER) was obtained by subtracting mitochondria-derived protons from the total PER. The analyses were conducted according to the manufacturer's instructions.
To investigate real-time changes in cellular metabolic functions, glycoPER (pmol H+/min) and OCR were analyzed (FIG. 5). GlycoPER reflects glycolytic functions, and OCR reflects mitochondrial respiration. […] Measurement of compensatory glycolysis was achieved by blocking oxidative phosphorylation using rotenone/antimycin.

[4] = tested on: A549 cells; test: Mitochondrial function analysis (Seahorse XFe24, OCR)
Method: as §3
To measure ATP production, oligomycin, an ATPase inhibitor, was added to the cells to inhibit mitochondria-derived ATP synthesis. Then, when carbonyl cyanide-4-(trifluoromethoxy)phenylhydrazone (FCCP), a mitochondrial oxidative phosphorylation uncoupler, was added to the cells, the OCR reached the maximal level, indicating maximal mitochondrial respiration. Spare respiratory capacity (SRC) indicates the amount of extra ATP produced by oxidative phosphorylation when energy demand of the cells increases suddenly. […] To determine the mitochondrial fuel source (glucose, glutamine, and fatty acid) that was better utilized in NSCLC cells, investigation was performed on the OCR of each fuel source in the absence and presence of each inhibitor. UK5099 (for glucose), BPTES (for glutamine), and etomoxir (for fatty acid).

[5] = tested on: p-ERK, p-AKT, cleaved caspase-3, LC-III in A549 cells; test: Immunoblot analysis of cell lysates; settings: NSCLC cells
Method: The immunoblot analysis was carried out according to a previously described method. A549 cells (4×10^5) were grown to approximately 70-80% confluency and treated with oTR (5, 10, and 50 μM) for 48 hours. The cell lysates and tissue lysates were prepared and subjected to SDS-PAGE for immunoblotting with the respective antibodies. Anti-caspase-3 (9662), anti-p-AKT (4058), and anti-AKT (9272) antibodies were purchased from Cell Signaling Technology (Danvers, Mass., USA). Anti-ERK1/ERK2 (MAB1576) and anti-p-ERK1/ERK2 (AF1018) were purchased from R&D Systems (Minneapolis, Minn., USA). Anti-LC-III (NB100-2331) antibody was purchased from Novus Biologicals (Littleton, Colo., USA). Anti-β-actin (sc-47778) and anti-GAPDH (sc-47724) antibody was purchased from Santa Cruz Biotechnology (Santa Cruz, Calif., USA).

OC[C@H]1O[C@@H](n2cnc3c(NCc4ccccc4O)ncnc32)[C@H](O)[C@@H]1O [oTR, ortho topolin riboside]
IC50 [1]: 34.3 ± 4.4 µM
viability of NSCLC cells ([2]; 48 hours of oTR treatment, FIG. 1): reduced
IC50 values compared among all tested plant hormones and derivatives ([2]; 48 hours, MTT assay): lowest IC50 values
basal and compensatory glycolytic rates (glycoPER) [3]: significant decrease
glucose oxidation (mitochondrial fuel capacity) ([4]; oTR 10 μM, FIG. 5C): did not differ
glutamine and fatty acid oxidations (mitochondrial fuel capacity) ([4]; oTR 10 μM, FIG. 5C): significantly reduced
OCR (oxygen consumption rate) ([4]; oTR 5, 10, and 50 μM, 48 hours, FIG. 5B): reduced
basal OCR, ATP production, and SRC ([4]; oTR-treated vs untreated A549 cells): Significant reduction
cleaved caspase-3 ([5]; 50 μM oTR): significantly increased
level of LC-III, an autophagy marker ([5]; FIG. 6C): did not change
phosphorylated AKT (p-AKT) ([5]; oTR 48 hours): significantly decreased
phosphorylated ERK1/2 (p-ERK) ([5]; oTR 48 hours): significantly decreased
